Measurements published in a melting point compilation (Tetko et al.; mined from patent text by program, amines drawn as free bases though some values may be those of a salt).

| melting point [°C] | Compound |
| --- | --- |
| 156 to 158 | O=C(O)CCCCNC(=O)Cc1ccc2c(c1)CC(NS(=O)(=O)c1ccc(Cl)cc1)C2 (stereo unspecified) |
| 140 | CN(C)C(=O)Nc1ccc(Oc2ccc(C(F)(F)F)cc2Cl)cc1 |
| 256 to 265 | O=c1oc2cccc(O)c2c(O)c1-c1ccccc1 |
| 62 | CCCCCCCCC(Cc1cccnc1)(C(=O)NO)S(=O)(=O)c1ccc(OC)cc1 (stereo unspecified) |
| 102 | Cc1ccc(S(=O)(=O)N(C)c2ccc(Cl)cc2N)cc1 |
| 227 to 229 | COC(=O)c1cc2cc(OC)c(OC)cc2nc1N |
| 94 to 96 | CC(C)(C)NCCCNC(=O)Cn1cnc(-c2ccccc2)c1-c1ccccc1 |
| 78 to 81 | CCCN(c1nc(-c2ccc(Cl)cc2Cl)c(C)s1)C(c1ccccc1)C1CC1 (stereo unspecified) |
| 197 to 200 | COc1cc(Nc2nccc(N3CCC(O)CC3)n2)ccc1-n1cnc(C)c1 |
| 141 to 142 | CS(=O)(=O)c1ccc(-c2cnn(-c3cccc(S(C)(=O)=O)c3)c(=O)c2-c2ccc(F)cc2)cc1 |
| 79 to 81 | CCCCCCCCCCCCCCCCCCOc1ccc(OCCCOc2ccc(OCc3ccccc3)cc2)c(C(=O)OC)c1 |
| 64 to 65 | CCOC(=O)C(Cc1ccc(C(F)(F)F)cc1)C(=O)c1ccncc1 (stereo unspecified) |
| 47 to 49 | O=C(O)c1cccc(Oc2cccc(C(F)(F)F)c2)n1 |
| 224 to 226 | Nc1nc2ccccc2n1-c1cccc(-c2nccs2)c1 |
| 211 to 212 | COCCOC1=CC(=O)C(Nc2ncnc3cc(OCCOC)c(OC)cc23)=CC1=O |
| 94 to 96 | CCOC(=O)C=Cc1cc(C=CC(=O)OCC)cc(Cc2cccnc2)c1 |
| 114 to 116 | Oc1ccc(C(=S)c2ccc(-c3ccccc3)cc2)c(O)c1 |
| 167 | COc1ccc(Br)c(C(=O)N2CCN(S(=O)(=O)c3ccccc3F)CC2)c1 |
| 255 | Cc1nc2c3c(ccc2n1C)C(=O)C(OC(=O)C(C)(C)C)C(c1ccccc1)O3 (stereo unspecified) |
| 74 to 76 | O=C(c1cccs1)c1cnn2c(-c3ccc(F)c(Br)c3)ccnc12 |

| melting point [°C] | Compound |
| --- | --- |
| 283 to 284 | CC(=O)Nc1cc([N+](=O)[O-])ccc1O |
| 125 to 128 | COc1ccccc1-c1ccn2ncc(Br)c2n1 |
| 58 | C[C@H](NC(=O)OC(C)(C)C)C(=O)OCCCNc1cccc2c1C(=O)c1ccccc1C2=O |
| 215 to 216 | Cc1nnc(-c2ccc3occ(-c4cn[nH]c4)c3c2)o1 |
| 284 to 286 | O=C1Nc2ccccc2S(=O)(=O)c2ccccc21 |
| 207 | COc1ccc(NC(=O)c2cc(O[Si](C)(C)C(C)(C)C)ccc2NC(=O)c2ccc(C(C)(C)C)cc2)cc1 |
| 308 | O=C(Nc1ccc2ccc(Cl)nc2n1)c1cnccn1 |
| 146 to 147 | Cc1nc(N2CCN(CCC3CC3)C2=O)sc1C(=O)NCc1cccnc1 |
| 255 | CNS(=O)(=O)c1cccc(NC(=O)c2cnn3c(C(F)F)cc(-c4ccc(C(F)(F)F)cc4)nc23)c1 |
| 152 to 154 | CCOC(=O)NN(CCO)c1ccc(-c2ccc(Cl)cc2)nn1 |
| 219 to 220 | Cn1c2cc(Cl)ccc2c2c(CO)nn(-c3ccccc3)c(=O)c21 |
| 171 | CC1=C(c2ccc(C(=O)N3Cc4ccc(C(=O)O)n4Cc4ccccc43)cc2)CCCC1 |
| 208 to 211 | Cc1ccc(Sc2cncc3sc(C(=O)Nc4ccc(Cl)cc4)cc23)cc1 |
| 112 to 117 | CCOC(=O)c1ccc(NCCC(c2ccc(Cl)cc2)c2ccc(Cl)cc2)cc1 |
| 124 to 126 | CCN(CC)CCN1c2cc(Cl)ccc2S[C@H]2[C@@H](OC(=O)c3ccccc3)[C@H](OC(=O)c3ccccc3)[C@@H](COC(=O)c3ccccc3)O[C@H]21 |
| 150 to 151 | O=C(Nc1nc(=O)n(S(=O)(=O)c2ccccc2)cc1F)c1ccccc1 |
| 126 to 127 | Cc1cc(C)n(-c2nc(Nc3ccccn3)c3ccccc3n2)n1 |
| 194 | CN1C(=O)Cn2c1nc(C(=O)O)c(OCc1ccccc1)c2=O |
| 158 to 159 | COCc1ccc(-c2coc3ccc(-c4nnc(C)o4)cc23)cc1 |
| 184 to 185 | CCCN1C(=O)N2C[C@@H](Cc3ccccc3)N=C2c2c1nc(C=O)n2Cc1ccccc1 |

| melting point [°C] | Compound |
| --- | --- |
| 168 to 169 | CCOC(=O)C1=C(C)N(Cc2ccccc2)C(C)=C(C(=O)OCC)C1c1ccc(Br)cc1 |
| 155 to 157 | Cc1c(C(=O)Nc2ccc(OCCCN3CCOCC3)c(C#N)c2)cnn1-c1ccc(Cl)cc1 |
| 231 to 233 | CC(=O)Oc1cc2nc[nH]c(=O)c2cc1OCc1ccccc1 |
| 130 | CCOC(=O)C1CN(C(=O)c2ccccc2)CC1c1ccc(NC(=O)Cc2ccc(NC(=O)Nc3ccccc3C)c(OC)c2)cc1 (stereo unspecified) |
| 194 to 195 | O=c1oc(-c2ccc(S(=O)(=O)c3ccccc3)cc2)cc(O)c1SCCc1ccccc1 |
| 194 to 195 | Cc1ccccc1CC(C(=O)Nc1cnc(Br)cn1)c1ccc(S(C)(=O)=O)cc1 (stereo unspecified) |
| 240 to 242 | CC(C)NC(=O)c1cc(Cl)nc(Cl)c1NC(=O)c1cc(C(F)(F)F)nn1-c1ncccc1Cl |
| 85 to 87 | CC(C(=O)O)c1ccc(Sc2nccs2)cc1 (stereo unspecified) |
| 157 to 159 | Fc1cc(CC2(Cc3ccnc(F)c3)c3cccnc3-c3sccc32)ccn1 |
| 178 to 179 | COC(=O)c1sccc1S(=O)(=O)NC(=O)Nc1nc(C)cc(OC(F)F)n1 |
| 172 to 174 | CCOC(=O)c1c(CN(C)C2CCCCC2)nc2cc(OC)c(OC)cc2c1-c1ccc(OC)c(OC)c1 |
| 229 to 230 | NS(=O)(=O)c1cc(C(=O)O)cc(NCc2ccc3c(c2)OCO3)c1Oc1ccccc1 |
| 181 to 183 | CCC1c2cccn2-c2ccc(C(F)(F)F)cc2N1S(=O)(=O)c1ccc(O)cc1 (stereo unspecified) |
| 242 to 246 | CNC(=O)Cc1c(C(=O)c2ccccc2)[nH]c2cc(Cl)ccc12 |
| 198 to 204 | COc1ccc(-c2nc(C)c([N+](=O)[O-])[nH]2)cc1 |
| 160 | COc1ccc(CN(C)CCCOc2ccc(NC(=O)c3cccc4c(=O)c5cccc(C)c5[nH]c34)cc2)cc1OC |
| 223 to 224 | CC1(C)OC(=O)Nc2ccc(-c3cccc(-c4nccs4)c3)cc21 |
| 268 to 270 | Nc1cc(C(=O)NNC(=O)c2occ(-c3ccccc3)c2-c2ccccc2)ccc1O |

Further lines, the molecule ahead of its results:

| Compound | melting point [°C] |
| --- | --- |
| CCCSc1ccc(N)c(C(=O)O)c1 | 91 to 93 |
| Cc1c(C#N)oc2c(c1=O)COc1ccccc1-2 | 179 to 181 |
| O=[N+]([O-])c1cc([N+](=O)[O-])c(Nc2nc(Cl)ccc2C(F)(F)F)c(C(F)(F)F)c1 | 129 to 131 |
| OCc1ccc(-c2cccnc2)o1 | 119 to 120 |
| CN(C)C(=O)CN1CCc2ccc([N+](=O)[O-])cc2CC1 | 94 to 96 |
| CCCc1cc(O)nc(C(Cl)(Cl)Cl)n1 | 107 to 110 |
| CSC(=C[N+](=O)[O-])S(C)=O (stereo unspecified) | 137 to 143 |
| CCOP(=O)(COCC(O)COn1cnc2c(N)ncnc21)OCC (stereo unspecified) | 84 to 85 |
| Cc1cc(N2CC=CCC2)nn2cnnc12 | 103 to 106 |
| Cc1c(-c2ccccc2)n[nH]c1OCCN1CCOCC1 | 100 |
| CNC(=O)n1nc(Oc2ncc(C(F)(F)F)cc2Cl)cc1C(F)(F)F | 61 to 63 |
| COc1ccc(C=CC(=O)O)cc1-c1cc2c(cc1OCCCCCO)C(C)(C)CCC2(C)C | 115 to 117 |
| CC(C)Cn1cc(C(=O)O)c2ccc(Cl)cc21 | 205 to 206 |
| N#Cc1c(N2CCN(C(=O)c3cccs3)CC2)c2cc(F)cnc2n(Cc2cccc(F)c2)c1=O | 137 |
| Cc1nnc(-c2cc(O)c(O)c([N+](=O)[O-])c2)o1 | 245 to 246 |
| Cc1c(N2CCc3ccccc3C2)c(F)cn2c(=O)c(C(=O)O)cc(C3CC3)c12 | 214 to 215 |
| O=C(O)CCC(CCC(=O)O)(CCC(=O)O)C(=O)c1ccc(Cl)cc1 | 135 to 137 |
| O=c1[nH]ncc2c1c(O)nc1ccccc12 | > 350 |
| O=c1[nH]c2cccc(O)c2n1CCN1CCN(c2cccc(C(F)(F)F)c2)CC1 | 246 |
| c1ccc2c(c1)NCCCO2 | 50 to 51 |
| O=C(Nc1ccncc1)OC1CN2CCC1CC2 (stereo unspecified) | 149 to 151 |
| N#CCNSc1ccc(Cl)cc1 | 74 to 76 |

| Compound | melting point [°C] |
| --- | --- |
| Cc1nn(C)c(S(N)(=O)=O)c1C(=O)OC(C)C | 120 to 122 |
| Cn1c2ccc(Cl)cc2c(=O)n2nc(C(=O)O)cc12 | 280 |
| Cc1ccc(C#N)c(N2CCc3ccccc3CC2)n1 | 78.5 to 80.7 |
| CCCCCNc1nc2ccccc2n1C1CCN(C2(c3ccccc3)CCCCCC2)CC1 | 156 to 159 |
| CC1(C)CC(=O)C(c2c(Cl)cc(N)cc2Cl)C(=O)C1 | 243 |
| CC(=O)NC(Cl)CCC(=O)c1ccccc1 (stereo unspecified) | 157 to 163 |
| Nc1cc2c(cc1[N+](=O)[O-])CC(CCO)C2 (stereo unspecified) | 89 to 91 |
| CCCOc1ccnc2[nH]cc(C(C)=O)c12 | > 210 |
| CS(=O)(=O)c1cc(C=O)cc(O)c1O | 169 to 171 |
| C#CCCN1C(=O)c2cccc3cccc(c23)C1=O | 191 to 193 |
| COC(=O)c1c([N+](=O)[O-])cccc1S(=O)(=O)N(C)CCO | 98 to 101 |
| O=C(CO)OC(=O)CCS | 143 to 144 |
| CS(=O)(=O)Oc1ccccc1S(N)(=O)=O | 131 to 132 |
| CCC12CCC3C4CCC(=O)C=C4CCC3C1CCC2OC(=O)CCc1ccccc1 (stereo unspecified) | 135 to 140 |
| OCC1N=c2c(ccc3c2=CC=N3)O1 (stereo unspecified) | 169 to 172 |
| Fc1cccc(Cn2cnnc2S)c1 | 124 to 125 |
| CON(Cc1nc2c(N)nc(C)c(C)c2n1CC(C)C)C(=O)C1CC1 | 135 to 137 |
| O=CNc1cc([N+](=O)[O-])cc([N+](=O)[O-])c1 | 121 to 123 |
| CCOc1c2c(c([N+](=O)[O-])c(OCC)c1OCC)C(=O)OC2 | 82.5 to 84.5 |
| CCN1CCN(c2cc3c(cc2F)c(=O)c(C(=O)O)c2n3C(C)S2)CC1 (stereo unspecified) | 211 to 214 |
| Clc1cccc(-n2ccnc2)n1 | 71 to 73 |
